Experimental data from patent US20230399314A1, “CD73 INHIBITOR AND USE THEREOF” (WUHAN HUMANWELL INNOVATIVE DRUG RESEARCH AND DEVELOPMENT …, priority 2020, published 2023).

Assays:
A375 melanoma = assay: In vivo efficacy on A375 melanoma (PBMC + A375 cells in NCG mice); details: anti PD-1 10 mg/kg alone
Description: A375 cells in logarithmic growth phase were collected, cultured in Mitomycin C for 2 h, and washed three times with PBS. After 5 days of co-culture of PBMC and A375 cells, PBMC and freshly digested A375 cells were collected, 5×10^5 PBMC and 4×10^6 A375 cells were inoculated subcutaneously on the right side of NCG mice according to 0.2 mL/mouse (containing 50% Matrigel). After inoculation, the mice were randomly divided into a model group and an administration group according to body weight of the mice, tumor size and animal weight were measured and recorded before and during administration, and tumor sizes of the model group and the administration group were compared after treatment to determine the efficacy.

[1] = biological target: CD73 bound to the surfaces of A375 cells (Homo sapiens (Human), UniProt P21589); assay: Inhibitory activity to CD73 enzyme bound to the surfaces of human melanoma A375 cells; assay type: cell-based; details: AMP 200 μM, 16 h
Sequence of CD73 bound to the surfaces of A375 cells (P21589 27-574): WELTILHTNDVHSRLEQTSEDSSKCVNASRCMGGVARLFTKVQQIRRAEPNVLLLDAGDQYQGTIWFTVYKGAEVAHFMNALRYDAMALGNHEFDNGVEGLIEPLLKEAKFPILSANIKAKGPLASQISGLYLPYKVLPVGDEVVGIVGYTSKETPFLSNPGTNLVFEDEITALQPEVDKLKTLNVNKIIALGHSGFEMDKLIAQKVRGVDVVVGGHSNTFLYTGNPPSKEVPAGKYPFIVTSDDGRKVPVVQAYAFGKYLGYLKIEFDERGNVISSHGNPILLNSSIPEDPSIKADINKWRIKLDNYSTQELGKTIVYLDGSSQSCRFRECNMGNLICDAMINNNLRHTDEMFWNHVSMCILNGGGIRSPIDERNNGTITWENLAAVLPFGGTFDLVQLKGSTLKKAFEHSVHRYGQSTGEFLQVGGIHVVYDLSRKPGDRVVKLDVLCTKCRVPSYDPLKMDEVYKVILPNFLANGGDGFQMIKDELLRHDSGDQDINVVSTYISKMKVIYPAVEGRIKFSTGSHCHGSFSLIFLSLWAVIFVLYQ
Description: The compound was diluted with serum-free DMEM to form a stock solution (5×) of an appropriate concentration gradient, the compound solution was added to the cells in the above 96-well plate according to 20 μL/well, and the mixture was placed in an incubator and pre-incubated for 30 min.
A375-bound CD73 inhibition rates of the compound at different concentrations were calculated according to the following formula, the concentration of the compound was taken as the X-axis, the inhibition rate was taken as the Y-axis, and an IC50 value of the compound in inhibiting A375-bound CD73 was calculated by using Prism software.

Human CD4+ T cells = assay: Relieving AMP-induced proliferation inhibition of human CD4+ T cells (CCK8); assay type: cell-based; details: AMP 0.3 mM, day 5
Description: On day 1 of the experiment, CD4^+ T cells (Allcells Shanghai, PB009-2F-C) were thawed, and inoculated into two replicate wells according to 3×10^4 cells/well and 50 μL/well. The compound was diluted with a complete medium to form a stock solution (4×) of an appropriate concentration gradient, the compound solution was added to the above cells according to 50 μL/well, and the mixture was pre-incubated at 37° C. for 30 min. […] Meanwhile, a positive reference group (Human CD4^+ T+IL-2+CD3/CD28 beads) and a negative reference group (Human CD4^+ T+IL-2+CD3/CD28 beads+AMP) were set. AMP (Sigma; A1752-5G) was diluted with a complete medium to form an AMP solution (4×), the AMP solution was added to the above cells according to 50 μL/well, the final concentration was 0.3 mM, and the mixture was incubated at 37° C. On day 3 of the experiment, the AMP solution was added to the above plate according to 20 μL/well, and the final concentration was 0.3 mM. On day 5, the proliferation of the cells was detected by using a CCK8 kit (DojinDO; CK04).
Inhibition rates of the compound at different concentrations in relieving AMP-induced proliferation inhibition of CD4^+ T cells were calculated according to the following formula, the concentration of the compound was taken as the X-axis, the inhibition rate was taken as the Y-axis, and an EC50 value of the compound in relieving the AMP-induced proliferation inhibition of CD4^+ T cells was calculated by using Prism software.

[2] = Pharmacokinetic test on mice; assay type: in vivo, male ICR mice; details: for Vd: read-out: Vz; for pharmacokinetic properties compared to the reference compounds: mice
Description: (§1) In a pharmacokinetic test on mice, male ICR mice of 20 g to 25 g were used and fasted overnight. 3 mice were selected for orally intragastric administration (10 mg/kg). Before administration, and 15 min, 30 min, 1 h, 2 h, 4 h, 8 h, and 24 h after administration, blood was sampled from each mouse. Another 3 mice were selected for intravenous injection administration (3 mg/kg), and before administration, and 15 min, 30 min, 1 h, 2 h, 4 h, 8 h, and 24 h after administration, blood was sampled from each mouse. The blood sample was centrifuged at 6,800 g and 2 to 8° C. for 6 min, and plasma was collected and stored at −80° C. The plasma of each time point was vortex-mixed for 1 min with an acetonitrile solution containing the internal standard with a volume 3-5 times that of the plasma of each time point, and centrifuged at 13,000 rpm and 4° C. for 10 min, a supernatant was collected and mixed with water with a volume 3 times that of the supernatant, and an appropriate amount of the mixed solution was used for LC-MS/MS analysis. The main pharmacokinetic parameters were analyzed by using a WinNonlin 7.0 non-compartmental model.

Human-CD73 enzyme = Human-CD73 enzyme (Homo sapiens (Human), UniProt P21589); assay: In vitro inhibitory activity to recombinant human CD73 enzyme (ATP-GLO); assay type: biochemical; details: Human-CD73 0.1 μg/mL, AMP 100 μM
Sequence of Human-CD73 enzyme (P21589 27-574): as above
Description: Human-CD73 (Novoprotein; C446) was diluted with Tris-MgCl2 buffer to form a stock solution (3×), which was placed in a 96-well plate according to 20 μL/well to obtain a final concentration of 0.1 μg/mL. The compound was diluted with Tris-MgCl2 buffer to form a stock solution (3×) of an appropriate concentration gradient, the compound solution was added to the above 96-well plate according to 20 μL/well and uniformly mixed with the Human-CD73 solution, and the mixture was incubated at the room temperature for 30 min. Meanwhile, a positive reference group (without the compound) and a negative reference group (without CD73) were set. AMP (Sigma; A1752-5G) was diluted with Tris-MgCl2 buffer to form a stock solution (3×), which was added to the above 96-well plate according to 20 μL/well to obtain a final concentration of 100 μM, and the mixture was uniformly mixed and incubated at 37° C. for 60 min; ATP (Sigma; A7699-1G) was diluted with Tris-MgCl2 buffer to form a stock solution (7×), which was added to the above 96-well plate according to 10 μL/well to obtain a final concentration of 100 μM, and the mixture was uniformly mixed, incubated for 5 min, and tested by using an ATP-GLO kit (Promega; G7573).
Human-CD73 inhibition rates of the compound at different concentrations were calculated according to the following formula, the concentration of the compound was taken as the X-axis, the inhibition rate was taken as the Y-axis, and an IC50 value of the compound in inhibiting Human-CD73 was calculated by using Prism software.

[3] = Pharmacokinetic test on dogs; assay type: in vivo, male Beagle dogs; details: for exposure compared to the reference compounds: dogs; for AUC(0-t) / Cmax / Tmax / half-life / clearance / Vd: male, Beagle, plasma, dog; for Vd: read-out: Vz
Description: as §1
In a pharmacokinetic test on dogs, male Beagle dogs of 8 to 10 kg were used and fasted overnight. 3 Beagle dogs were selected for orally intragastric administration (5 mg/kg). Another 3 Beagle dogs were selected for intravenous injection administration (1 mg/kg). Other operations were the same as the pharmacokinetic test on mice.

[4] = male, ICR, plasma, po, mouse, orally intragastric 10 mg/kg
[5] = male, ICR, plasma, po, mouse, orally intragastric 10 mg/kg, read-out: AUC0-t
[6] = male, ICR, plasma, po, mouse, orally intragastric 10 mg/kg, read-out: Cmax
[7] = male, ICR, plasma, po, mouse, orally intragastric 10 mg/kg, read-out: Tmax
[8] = male, ICR, plasma, mouse, intravenous injection 3 mg/kg
[9] = male, ICR, plasma, mouse, intravenous injection 3 mg/kg, read-out: AUC0-t
[10] = po, orally intragastric 5 mg/kg
[11] = mouse, orally intragastric 10 mg/kg

| Compound | IC50 [1] [nM] | EC50 (Human CD4+ T cells; Homo sapiens, 120 h) [nM] | half-life [2, 4] [h] | AUC(0-t) [2, 5] [ng·h/mL] | Cmax [2, 6] [ng/mL] | Tmax [2, 7] [h] | clearance [2, 8] [mL/min/kg] | half-life [2, 8] [h] | AUC(0-t) [2, 9] [ng·h/mL] | Vd [2, 8] [L/kg] | pharmacokinetic properties compared to the reference compounds [2] | IC50 (Human-CD73 enzyme) [nM] | other results |
| --- | --- | --- | --- | --- | --- | --- | --- | --- | --- | --- | --- | --- | --- |
| Toripalimab [anti PD-1] |  |  |  |  |  |  |  |  |  |  |  |  | % TGI (A375 melanoma): 25.08%; Mean ± SEM (tumor size) (A375 melanoma; in mm³ (unit assumed)): 1472 ± 194.9 |
| O=c1[nH]cc(-c2cc([C@H]3C[C@@H]3C(F)(F)F)c(Cl)nn2)c(=O)[nH]1 [Compound 3, 5-(6-chloro-5-((1S,2S)-2-(trifluoromethyl)cyclopropyl)pyridazin-3-yl)pyrimidine-2,4(1H,3H)-dione] | 26.8 | 111 | 2.7 | 107000 | 12100 | 0.83 | 3.67 | 3.72 | 13800 | 1.17 | significantly improved |  |  |
| O=c1[nH]cc(-c2cc([C@@H]3C[C@H]3C(F)(F)F)c(Cl)nn2)c(=O)[nH]1 [Compound 4, 5-(6-chloro-5-((1R,2R)-2-(trifluoromethyl)cyclopropyl)pyridazin-3-yl)pyrimidine-2,4(1H,3H)-dione] | 134 | 1070 | 2.85 | 185000 | 16100 | 3 | 3.33 | 3.68 | 15200 | 1.05 | significantly improved | 58.4 | exposure compared to the reference compounds [3]: much higher; AUC(0-t) [3, 10]: 65700 ng·h/mL; Cmax [3, 10]: 7550 ng/mL; Tmax [3, 10]: 1.17 h; half-life [3, 10]: 4.13 h; AUC(0-t) ([3]; intravenous injection 1 mg/kg): 5810 ng·h/mL; clearance ([3]; intravenous injection 1 mg/kg): 3 mL/min/kg; half-life ([3]; intravenous injection 1 mg/kg): 3.63 h; Vd ([3]; intravenous injection 1 mg/kg): 0.95 L/kg |
| O=c1[nH]cc(-c2cc([C@H]3C[C@@H]3CC(F)(F)F)c(Cl)nn2)c(=O)[nH]1 [Compound 9, 5-(6-chloro-5-((1S,2R)-2-(2,2,2-trifluoroethyl)cyclopropyl)pyridazin-3-yl)pyrimidine-2,4(1H,3H)-dione] | 5.56 |  |  |  |  |  |  |  |  |  | significantly improved | 8.17 | EC50 (Human CD4+ T cells): 32.6 nM; AUC(0-t) [2, 11]: 65441 ng·h/mL; Cmax [2, 11]: 6601.90 ng/mL; T1/2 [2, 11]: 4.87 h; Tmax [2, 11]: 1.17 h |
| Cc1nnc(-c2c[nH]c(=O)[nH]c2=O)cc1[C@H]1C[C@@H]1C(F)(F)F [Compound 7, 5-(6-methyl-5-((1S,2S)-2-(trifluoromethyl)cyclopropyl)pyridazin-3-yl)pyrimidine-2,4(1H,3H)-dione] | 54.9 |  |  |  |  |  |  |  |  |  |  | 32.1 |  |
| O=c1[nH]cc(-c2cc([C@H]3C[C@@H]3CC(F)F)c(Cl)nn2)c(=O)[nH]1 [Compound 18, 5-(6-chloro-5-((1S,2R)-2-(2,2-difluoroethyl)cyclopropyl)pyridazin-3-yl)pyrimidine-2,4(1H,3H)-dione] | 17.6 |  | 1.43 | 9800 | 4410 | 0.42 | 10.3 | 1.82 | 5070 | 1.5 |  |  |  |
| Cc1nnc(-c2c[nH]c(=O)[nH]c2=O)cc1[C@H]1C[C@@H]1C(F)F [Reference compound 1, 5-(5-((1S,2S)-2-(difluoromethyl)cyclopropyl)-6-methylpyridazin-3-yl)pyrimidine-2,4(1H,3H)-dione, reference compound] | 247 |  | 1.17 | 821 | 1150 | 0.25 | 85.2 | 1.99 | 585 | 14.7 |  | 12.5 |  |
| O=c1[nH]cc(-c2cc([C@H]3C[C@@H]3COC(F)(F)F)c(Cl)nn2)c(=O)[nH]1 [Compound 11, 5-(6-chloro-5-((1S,2S)-2-((trifluoromethoxy)methyl)cyclopropyl)pyridazin-3-yl)pyrimidine-2,4(1H,3H)-dione] |  | 169 | 3.06 | 36200 | 5530 | 0.67 | 7.83 | 3.72 | 6950 | 2.57 | significantly improved |  | exposure compared to the reference compounds [3]: much higher; AUC(0-t) [3, 10]: 16600 ng·h/mL; Cmax [3, 10]: 5710 ng/mL; Tmax [3, 10]: 0.83 h; half-life [3, 10]: 2.27 h; AUC(0-t) ([3]; intravenous injection 1 mg/kg): 2100 ng·h/mL; clearance ([3]; intravenous injection 1 mg/kg): 8.83 mL/min/kg; half-life ([3]; intravenous injection 1 mg/kg): 0.89 h; Vd ([3]; intravenous injection 1 mg/kg): 0.66 L/kg |
